Values after ≈ are worked out from the molar mass of the structure shown. Like-named read-outs stand apart in the source and are kept apart here.
Experiments:
Type in all cases: physicochemical
[1] = Solid-state stability test, one week, HPLC purity; details: for HPLC purity 1 week: open container; for HPLC purity, Initial purity: before storage
Procedure: Experimental method: appropriate amount of samples were respectively weighed and placed in open containers under the conditions of light illumination of 4500 lux, 25° C./60% RH and 40° C./75% RH to perform solid-state stability test evaluation for one week. One week later, the purities of the test samples were tested by HPLC to detect the change of purity. Three groups of parallel tests were set for each test condition.
High performance liquid chromatograms were collected on an Agilent 1100 HPLC.

[2] = Solubility test in water, FaSSIF and FeSSIF (24 h, 37° C., HPLC concentration); details: initial feeding amount 10 mg/ml; for solubility at 24 h: 37 °C, thermodynamic from solid
Procedure: Experimental method: the solubility test was carried out in three solvents including water, fasted state simulated intestinal fluid (FaSSIF) and fed state simulated intestinal fluid (FeSSIF), to evaluate the solubilities of the salts of the present invention.
In the experiment, the sample and the solvent were mixed in a centrifuge tube (the initial feeding amount was 10 mg/ml), then the centrifuge tube was sealed and fixed on a rotating disk with a rotation speed of 25 rpm, and sampling was performed after rotating and mixing for 24 h at 37° C. The turbid sample was subjected to centrifugal separation, and the filtered supernatant was measured for HPLC concentration. If the sample solution was clear, the concentration of the obtained solution was measured.

[3] = Dynamic moisture adsorption (DVS) hygroscopicity test; details: for Hygroscopicity (moisture adsorption capacity): DVS, 25° C./80% RH; for Whether the crystal form has a change: XRPD before and after DVS test
Procedure: The moisture adsorption capacities of the representative salts and the free base of the above Examples and Comparative Examples were tested when the humidity reached 80% RH through a dynamic moisture adsorption (DVS) test at 25° C., so as to compare the hygroscopicities.
Experimental results: the test results are shown in Table 13, wherein, >15% means very hygroscopic, 2% to 15% means hygroscopic, 0.2% to 2% means slightly hygroscopic, and <0.2% means almost non-hygroscopic.

[4] = Solubility test in water, FaSSIF and FeSSIF (24 h, 37° C., HPLC concentration); details: stated in background
[5] = fasted state simulated intestinal fluid
[6] = fed state simulated intestinal fluid
[7] = FaSSIF, fassif, fasted state simulated intestinal fluid, read-out: Solubility in FaSSIF
[8] = FeSSIF, fessif, fed state simulated intestinal fluid, read-out: Solubility in FeSSIF
[9] = water, water, water, read-out: Solubility in water

HPLC purity 1 week Relative to the initial purity ([1]; 25° C./60% RH)	HPLC purity 1 week ([1]; 25° C./60% RH)	HPLC purity 1 week Relative to the initial purity ([1]; 40° C./75% RH)	HPLC purity 1 week ([1]; 40° C./75% RH)	HPLC purity 1 week Relative to the initial purity ([1]; Light illumination 4500 lux)	HPLC purity 1 week ([1]; Light illumination 4500 lux)	HPLC purity, Initial purity [1]	Solubility in FaSSIF [2, 5]	Solubility in water ([2]; water)	Hygroscopicity (moisture adsorption capacity) [3]	Whether the crystal form has a change [3]	solubility at 24 h [2, 7]	solubility at 24 h [2, 8]	Structure (SMILES)	other results
99.9%	99.73 Area %	99.4%	99.16 Area %	98.5%	98.28 Area %	99.81 Area %			12.02%	Change			CC1=Nc2c(F)cc(-c3nc(Nc4ccc(C5CCN(C)CC5)cn4)ncc3F)cc2C12CCCC2.CS(=O)(=O)O [Methanesulfonate crystal form A, Methanesulfonate of 5-fluoro-4-(7′-fluoro-2′-methylspiro[cyclopentane-1,3′-indol]-5′-yl)-N-(5-(1-methylpiperidin-4-yl)pyridin-2-yl)pyrimidine-2-amine, reference compound]	Whether the crystal form has a change ([3]; listed as methanesulfonate crystal form A): changed to amorphous
100.0%	99.88 Area %	100.0%	99.89 Area %	99.9%	99.83 Area %	99.91 Area %			2.00%	No change	7100 µg/mL	7800 µg/mL	CC1=Nc2c(F)cc(-c3nc(Nc4ccc(C5CCN(C)CC5)cn4)ncc3F)cc2C12CCCC2.O=C(O)/C=C\C(=O)O [Maleate crystal form B, Maleate of 5-fluoro-4-(7′-fluoro-2′-methylspiro[cyclopentane-1,3′-indol]-5′-yl)-N-(5-(1-methylpiperidin-4-yl)pyridin-2-yl)pyrimidine-2-amine]	HPLC purity 1 week Relative to the initial purity ([1]; 40° C./75% RH, listed as maleate crystal form B): 100%; solubility at 24 h [2, 9]: 12900 µg/mL; Whether the crystal form has a change ([3]; listed as maleate crystal form B): no change
100.0%	99.90 Area %	100.00%	99.90 Area %	100.0%	99.90 Area %	99.94 Area %			0.33%	No change	6400 µg/mL	10700 µg/mL	CC1=Nc2c(F)cc(-c3nc(Nc4ccc(C5CCN(C)CC5)cn4)ncc3F)cc2C12CCCC2.O=C(O)CCC(=O)O [Succinate crystal form A, Succinate of 5-fluoro-4-(7′-fluoro-2′-methylspiro[cyclopentane-1,3′-indol]-5′-yl)-N-(5-(1-methylpiperidin-4-yl)pyridin-2-yl)pyrimidine-2-amine]	HPLC purity 1 week Relative to the initial purity ([1]; 40° C./75% RH, listed as succinate crystal form A): 100%; HPLC purity 1 week Relative to the initial purity ([1]; Light illumination 4500 lux, listed as succinate crystal form A): 100%; solubility at 24 h [2, 9]: 7500 µg/mL; Whether the crystal form has a change ([3]; listed as succinate crystal form A): no change

The remaining lines, values behind:

Structure (SMILES)	HPLC purity 1 week Relative to the initial purity ([1]; 25° C./60% RH)	HPLC purity 1 week ([1]; 25° C./60% RH)	HPLC purity 1 week Relative to the initial purity ([1]; 40° C./75% RH)	HPLC purity 1 week ([1]; 40° C./75% RH)	HPLC purity 1 week Relative to the initial purity ([1]; Light illumination 4500 lux)	HPLC purity 1 week ([1]; Light illumination 4500 lux)	HPLC purity, Initial purity [1]	Solubility in FaSSIF [2, 5]	Solubility in water ([2]; water)	Hygroscopicity (moisture adsorption capacity) [3]	Whether the crystal form has a change [3]	solubility at 24 h [2, 7]	solubility at 24 h [2, 8]	other results
CC1=Nc2c(F)cc(-c3nc(Nc4ccc(C5CCN(C)CC5)cn4)ncc3F)cc2C12CCCC2.O=C(O)/C=C/C(=O)O [Fumarate crystal form C, Fumarate of 5-fluoro-4-(7′-fluoro-2′-methylspiro[cyclopentane-1,3′-indol]-5′-yl)-N-(5-(1-methylpiperidin-4-yl)pyridin-2-yl)pyrimidine-2-amine]	100.0%	99.48 Area %	100.0%	99.48 Area %	100.0%	99.46 Area %	99.48 Area %	5900 µg/mL	480 µg/mL					HPLC purity 1 week Relative to the initial purity ([1]; 40° C./75% RH, listed as fumarate crystal form C): 100%; HPLC purity 1 week Relative to the initial purity ([1]; Light illumination 4500 lux, listed as fumarate crystal form C): 100%; Solubility in FeSSIF [2, 6]: 13600 µg/mL
CC1=Nc2c(F)cc(-c3nc(Nc4ccc(C5CCN(C)CC5)cn4)ncc3F)cc2C12CCCC2.O=C(O)/C=C/C(=O)O [Fumarate crystal form A, Fumarate of 5-fluoro-4-(7′-fluoro-2′-methylspiro[cyclopentane-1,3′-indol]-5′-yl)-N-(5-(1-methylpiperidin-4-yl)pyridin-2-yl)pyrimidine-2-amine]	100.0%	99.89 Area %	100.0%	99.88 Area %	100.0%	99.89 Area %	99.92 Area %		6300 µg/mL	0.35%	No change	7600 µg/mL	8000 µg/mL	HPLC purity 1 week Relative to the initial purity ([1]; 40° C./75% RH, listed as fumarate crystal form A): 100%; HPLC purity 1 week Relative to the initial purity ([1]; Light illumination 4500 lux, listed as fumarate crystal form A): 100%; Whether the crystal form has a change ([3]; listed as fumarate crystal form A): no change
CC1=Nc2c(F)cc(-c3nc(Nc4ccc(C5CCN(C)CC5)cn4)ncc3F)cc2C12CCCC2 [Adipate crystal form A, Adipate of 5-fluoro-4-(7′-fluoro-2′-methylspiro[cyclopentane-1,3′-indol]-5′-yl)-N-(5-(1-methylpiperidin-4-yl)pyridin-2-yl)pyrimidine-2-amine]	100.0%	99.88 Area %	100.0%	99.89 Area %	100.0%	99.88 Area %	99.90 Area %	6800 µg/mL (≈ 13.9 mM)	6500 µg/mL (≈ 13.3 mM)	0.22%	No change			HPLC purity 1 week Relative to the initial purity ([1]; 40° C./75% RH, listed as adipate crystal form A): 100%; HPLC purity 1 week Relative to the initial purity ([1]; Light illumination 4500 lux, listed as adipate crystal form A): 100%; Solubility in FeSSIF [2, 6]: 11600 µg/mL (≈ 23.7 mM); Whether the crystal form has a change ([3]; listed as adipate crystal form A): no change
CC1=Nc2c(F)cc(-c3nc(Nc4ccc(C5CCN(C)CC5)cn4)ncc3F)cc2C12CCCC2.Cl [Hydrochloride crystal form B, Hydrochloride of 5-fluoro-4-(7′-fluoro-2′-methylspiro[cyclopentane-1,3′-indol]-5′-yl)-N-(5-(1-methylpiperidin-4-yl)pyridin-2-yl)pyrimidine-2-amine, reference compound]										9.12%	Change			Whether the crystal form has a change ([3]; listed as hydrochloride crystal form B): changed to amorphous
CC1=Nc2c(F)cc(-c3nc(Nc4ccc(C5CCN(C)CC5)cn4)ncc3F)cc2C12CCCC2 [Free base crystal form A, 5-fluoro-4-(7′-fluoro-2′-methylspiro[cyclopentane-1,3′-indol]-5′-yl)-N-(5-(1-methylpiperidin-4-yl)pyridin-2-yl)pyrimidine-2-amine, reference compound]	100.0%	100.0 Area %	99.9%	99.92 Area %	99.3%	99.28 Area %	100.00 Area %	190 µg/mL (≈ 0.389 mM)	75 µg/mL (≈ 0.154 mM)	0.10%	No change		10200 µg/mL (≈ 20.9 mM)	solubility [4]: 75 µg/mL (≈ 0.154 mM); HPLC purity 1 week Relative to the initial purity ([1]; Light illumination 4500 lux, listed as free base crystal form A): 99.3%
